Assay results: patent EP4035684A1, “AFFINITY ILLUDOFULVENE CONJUGATES” (AF Chemical LLC, priority 2019, dated 2022)

Assays:
[1] = test system: NCI 60 cell line panel; conditions: cited from earlier work; for Mean TGI cytostatic / GI50: mean over NCI DTP 60 cell lines; for GI50: read-out: Mean GI50 inhibition
[2] = test system: MCF7 (ER positive); experiment: Cytotoxicity, 2 hour exposure, cells expressing the estrogen receptor; type: cell-based; conditions: Homo sapiens, N=3, mean ± SD
Excerpt: (§1) MCF7 over express estrogen alpha-receptors.
(§2) MCF7 cells over express estrogen alpha-receptors.
(§3) The foregoing description of embodiments of the methods, systems, and components of the present invention has been provided for the purposes of illustration and description. It is not intended to be exhaustive or to limit the invention to the precise forms disclosed. Many modifications and variations will be apparent to one of ordinary skill in the relevant arts. For example, steps performed in the embodiments of the invention disclosed can be performed in alternate orders, certain steps can be omitted, and additional steps can be added. The embodiments were chosen and described in order to best explain the principles of the invention and its practical application, thereby enabling others skilled in the art to understand the invention for various embodiments and with various modifications that are suited to the particular used contemplated. Other embodiments are possible and are covered by the invention. Such embodiments will be apparent to persons skilled in the relevant art(s) based on the teachings contained herein. The breadth and scope of the present invention should not be limited by any of the above-described exemplary embodiments, but should be defined only in accordance with the following claims and their equivalents.

[3] = test system: HT29 (ER Negative); experiment: Cytotoxicity, 2 hour exposure, cells not expressing the estrogen receptor; type: cell-based; conditions: Homo sapiens, HT-29, N=3, mean ± SD
Excerpt: as §1, §2, §3

[4] = test system: Prostate DuPro (trace PSA); experiment: Activity of PSA cleavable analogs against trace PSA cell line, 48 hour exposure; type: cell-based; conditions: Homo sapiens, N=3, mean ± SD
[5] = test system: Prostate LnCAP (positive PSA); experiment: Activity of PSA cleavable analogs against PSA positive cell line, 48 hour exposure; type: cell-based; conditions: Homo sapiens, N=3, mean ± SD
[6] = test system: Prostate PC3 (negative PSA); experiment: Activity of PSA cleavable analogs against PSA negative cell line, 48 hour exposure; type: cell-based; conditions: N=3, mean ± SD

Structure (SMILES) | CC50 ([1]; human, nci 60 cell lines) [nM] | Mean TGI cytostatic [1] [nM] | GI50 [1] [nM] | IC50 [2] [nM] | IC50 [3] [nM] | IC50 [4] [nM] | IC50 [5] [nM] | IC50 [6] [nM]
CC1=C2C(=CC(C)(C)[C@@H]2O)C(=O)[C@](C)(O)C12CC2 [Illudin M] | 291 | 20 | 3 | 480 ± 130 | 520 ± 100 |  |  | 
CC1=C2C(=C[C@@](C)(CO)[C@@H]2O)C(=O)[C@](C)(O)C12CC2 [Illudin S] |  | 64 | 10 |  |  | 11 ± 3 | 15 ± 3 | 16 ± 5
